target: histone deacetylase activity (HeLa nuclear extract); assay: HDAC fluorescent activity assay (Biomol Fluor de Lys), HeLa nuclear extract; type: biochemical; conditions: HeLa nuclear extract as HDAC source; Fluor de Lys substrate; IC50 range; read-out: Inhibitor Activity versus HDAC
Experimental: The ability of compounds of Examples 1 to 17 to inhibit histone deacetylase activities was measured using the commercially available HDAC fluorescent activity assay from Biomol. In brief, the Fluor de Lys™ substrate, a lysine with an epsilon-amino acetylation, is incubated with the source of histone deacetylase activity (HeLa nuclear extract) in the presence or absence of inhibitor. Deacetylation of the substrate sensitises the substrate to Fluor de Lys™ developer, which generates a fluorophore. Thus, incubation of the substrate with a source of HDAC activity results in an increase in signal that is diminished in the presence of an HDAC inhibitor.
Data are expressed as a percentage of the control, measured in the absence of inhibitor, with background signal being subtracted from all samples, as follows:— % activity=((S^i−B)/(S^o−B))×100 where S^i is the signal in the presence of substrate, enzyme and inhibitor, S^o is the signal in the presence of substrate, enzyme and the vehicle in which the inhibitor is dissolved, and B is the background signal measured in the absence of enzyme.
IC50 values were determined by non-linear regression analysis, after fitting the results of eight data points to the equation for sigmoidal dose response with variable slope (% activity against log concentration of compound), using Graphpad Prism software.
Histone deacetylase activity from crude nuclear extract derived from HeLa cells was used for screening. The preparation, purchased from 4C (Seneffe, Belgium), was prepared from HeLa cells harvested whilst in exponential growth phase. The nuclear extract is prepared according to Dignam J D 1983 Nucl. Acid. Res. 11, 1475-1489, snap frozen in liquid nitrogen and stored at −80° C. The final buffer composition was 20 mM Hepes, 100 mM KCl, 0.2 mM EDTA, 0.5 mM DTT, 0.2 mM PMSF and 20% (v/v) glycerol.

SMILES | IC50 [nM]
O=C(CCCCCC(=O)N1CCc2c([nH]c3ccccc23)C1)NO [Example 2] | < 330
COc1ccc2[nH]c3c(c2c1)CCN(C(=O)CCCCCCC(=O)NO)C3 [Example 3] | < 330
COC(=O)[C@H]1Cc2c([nH]c3ccccc23)CN1C(=O)CCCCCCC(=O)NO [Example 4] | < 330
O=C(CCCCCCCC(=O)N1CCc2c([nH]c3ccccc23)C1)NO [Example 5] | < 330
COc1ccc2[nH]c3c(c2c1)CCN(C(=O)CCCCCC(=O)NO)C3 [Example 6] | < 330
COc1ccc2[nH]c3c(c2c1)CCN(C(=O)CCCCCCCC(=O)NO)C3 [Example 7] | < 330
O=C(CCCCCC(=O)N1CCc2c([nH]c3ccccc23)C1C(F)(F)F)NO (stereo not shown) [Example 8] | 330 to 1000
O=C(CCCCCCC(=O)N1CCc2c([nH]c3ccccc23)C1C(F)(F)F)NO (stereo not shown) [Example 9] | < 330
O=C(CCCCCCCC(=O)N1CCc2c([nH]c3ccccc23)C1C(F)(F)F)NO (stereo not shown) [Example 10] | < 330
COC(=O)[C@H]1Cc2c([nH]c3ccccc23)CN1C(=O)CCCCCC(=O)NO [Example 11] | 330 to 1000
COC(=O)[C@H]1Cc2c([nH]c3ccccc23)CN1C(=O)CCCCCCCC(=O)NO [Example 12] | 330 to 1000
O=C(CCCCCC(=O)N1CCc2c([nH]c3ccccc23)C12CCCCC2)NO [Example 13] | 330 to 1000
O=C(CCCCCCC(=O)N1CCc2c([nH]c3ccccc23)C12CCCCC2)NO [Example 14] | < 330
O=C(CCCCCC(=O)N1Cc2[nH]c3ccccc3c2C[C@@H]1C(=O)O)NO [Example 15] | 330 to 1000
O=C(CCCCCCC(=O)N1Cc2[nH]c3ccccc3c2C[C@@H]1C(=O)O)NO [Example 16] | < 330
O=C(CCCCCCCC(=O)N1Cc2[nH]c3ccccc3c2C[C@@H]1C(=O)O)NO [Example 17] | 330 to 1000
